Laboratory results from patent US7223580B2, “N-acetylglucosamine transferase, nucleic acid encoding the same and use thereof in diagnosing cancer and/or tumor” (National Institute of Advanced Industrial Science and …, priority 2002, dated 2007).

Target: T1, β3GnT-7 (Homo sapiens, UniProt Q8NFL0)
T1 construct: made in house; host or cells: Sf21 insect cells (baculovirus, Bac-to-Bac); purified from culture supernatant on anti-M1 (anti-FLAG) resin
T1 sequence (Q8NFL0 75-401): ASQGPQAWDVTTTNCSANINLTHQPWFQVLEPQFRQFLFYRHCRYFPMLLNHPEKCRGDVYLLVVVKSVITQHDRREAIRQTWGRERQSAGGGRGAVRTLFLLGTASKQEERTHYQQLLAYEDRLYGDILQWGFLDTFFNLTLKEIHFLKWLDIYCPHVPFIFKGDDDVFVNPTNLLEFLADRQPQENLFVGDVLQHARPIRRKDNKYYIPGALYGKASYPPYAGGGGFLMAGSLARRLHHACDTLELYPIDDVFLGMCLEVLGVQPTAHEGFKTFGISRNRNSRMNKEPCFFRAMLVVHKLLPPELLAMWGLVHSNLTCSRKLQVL
Test: Search of acceptor substrate of β3Gn-T7 (UDP-[14C]GlcNAc transfer, TLC radioactivity)
Assay type: biochemical
Settings: acceptor substrate 10 nmol, donor UDP-GlcNAc 480 μM, 37° C. for 5 hours, pH7.2
Text: Using the following reaction systems, the acceptor substrate was searched. As the “acceptor substrate” in the reaction solution described below, each of the following was used and whether each of them functioned as the acceptor or not was investigated: pNp-α-Glc, pNp-β-Glc, pNp-α-GlcNAc, pNp-β-GlcNAc, pNp-α-Gal, pNp-β-Gal, pNp-α-GalNAc, Bz-α-GalNAc, pNp-α-Xyl, pNp-β-Xyl, pNp-α-Fuc, Bz-α-Man, Bz-α-ManNAc, LacCer, GalCer typel and Bz-β-lactoside (all of them are from SIGMA) and Galβ1-4GlcNAc-α-pNp (TRONTO RESEARCH CHEMICAL).
The reaction solution (the numbers in the parentheses indicate the final concentrations) contained acceptor substrate (10 nmol), sodium cacodylate buffer (pH7.2) (50 mM), Triton CF-54 (trademark) (0.4%), MnCl2 (10 mM), UDP-GlcNAC (480 μM) and UDP-[^14C]GlcNAC (175 nCi) and CDP-colline (5 mM), to which 10 μl of the β3Gn-T7 enzyme solution and H2O were added to attain a final volume of 25 μl.
The reaction mixture was allowed to react at 37° C. for 5 hours, and after completion of the reaction, 200 μl of 0.1 M KCl was added, followed by light centrifugation and collection of the supernatant. […] After developing the mixture up to 5 mm from the top end of the TLC plate, the plate was dried and the intensity of the radioactivity taken in the product was measured using Bio Image Analyzer FLA3000 (FUJI PHOTO FILM).

Row | whether it functioned as the acceptor (transfer of GlcNAc by β3GnT-7) | SMILES
1 | activity to transfer GlcNAc | OC[C@H]1O[C@@H](O[C@H]2[C@H](O)[C@@H](O)[C@H](OCc3ccccc3)O[C@@H]2CO)[C@H](O)[C@@H](O)[C@H]1O [Bz-β-lactoside]
2 | activity to transfer GlcNAc | CC(=O)N[C@H]1[C@@H](Oc2ccc([N+](=O)[O-])cc2)O[C@H](CO)[C@@H](O[C@@H]2O[C@H](CO)[C@H](O)[C@H](O)[C@H]2O)[C@@H]1O [Galβ1-4Glc(NAc)-α-pNp, Galβ1-4GlcNAc-α-pNp]
